Data reported in US11491155B2, “Salt of a pyrimido[6,1-A]isoquinolin-4-one compound” (VERONA PHARMA PLC, priority 2015, dated 2022).
Counter-ions that a name gives are not always drawn.

How the values were obtained:
[1] = Aerosol performance of DPI formulations (Cyclohaler, NGI); format: physicochemical; settings: for †Measured Mass of 1% w/w Blend Delivered per capsule / ††RPL554 Emitted (μg) per capsule (B): Cyclohaler; for †Measured Mass of 1% w/w Blend Delivered per capsule: 5 capsules containing 20 mg powder blend, mass from weight change of capsule-loaded device; for ††RPL554 Emitted (μg) per capsule (B): NGI, mass determined from HPLC analysis of recovered samples; for ††RPL554 Emitted (μg) per capsule (B) / Calculated RPL554 Content (μg) per capsule (A): as RPL554 base; for Calculated RPL554 Content (μg) per capsule (A): calculated from delivered blend mass and measured blend content
Protocol: Capsules were hand filled with 20 mg of the 1% w/w RPL554 free base or salt variants: lactose blends, i.e. 200 μg salt per capsule, the fill weight of each capsule was recorded. Due to differences in the molecular weights of the RPL554 salt forms, the amount of RPL554 emitted per actuation varied as a function of molecular weight. The formulations were prepared with no adjustment for differences in molecular weight of the salts.
The powders were delivered via the Cyclohaler® DPI (PCH Pharmachemie, BV, The Netherlands). The Cyclohaler® DPI is a low resistance device and was operated at a flow rate of 90 L/min for 2.7 seconds. The cut off diameters for the NGI collection stages were calculated for the 90 L/min flow rate using the NGI User Guide (MSP Corporation, 2008).
The ED, FPD and FPF were determined from inertial impaction tests performed following the deposition of 5 capsules of each formulation into the NGI. For each capsule tested the combined weight of the Cyclohaler® and capsule was determined before and after operation to check that the dose had been delivered. The NGI was fitted with a pre-separator for these determinations. The central cup of the pre-separator was filled with 15 mL of diluent. Following deposition, the solution was recovered in a 20 mL volumetric flask and made up to volume with diluent. RPL554 was quantitatively recovered from the device, induction port and each of the NGI collection stages with 10 mL of diluent.
The volume of diluent used for each sample was selected to ensure RPL554 concentrations were above the limit of quantitation.

[2] = RPL554 content and content uniformity of 1% w/w lactose powder blends; format: physicochemical; settings: for Measured Blend Content (% Theoretical): 1% w/w RPL554 variant: lactose powder blend, expressed as RPL554 base; for **Adjusted RPL554 Content per capsule: per 20 mg capsule of 1% w/w lactose blend, adjusted for measured blend content (% theoretical), as RPL554 base
Protocol: Batches (approximately 5 g) of 1% w/w RPL554 free base or salt variants: lactose blends were prepared. In brief, the RPL554 free base or salt plus a small quantity of lactose was passed through a 38 μm sieve. The sieved material plus the remaining lactose was mixed in a glass mortar prior to transfer to a stainless steel screw cap jar and further mixing (10 minutes at 46 rpm) conducted using a Turbula blender. The composition of the dry powder blend was 0.05 g API and 4.95 g lactose.
In order to determine the content uniformity of the blends, aliquots (approx. 20 mg) of powder were sampled from each blend, accurately weighed, and diluted to volume in 10 mL volumetric flasks with diluent. The flasks were sonicated for 3 minutes before samples were transferred to HPLC vials for analysis.

[3] = Primary particle size analysis by laser light diffraction (Mastersizer 2000); format: physicochemical; settings: micronised, mean n=3
Protocol: A Mastersizer 2000 fitted with a Scirocco 2000 dry powder dispersion unit (Malvern Instruments Ltd, UK) was used to analyse the primary particle size of the micronised RPL554 and salt variants. The salts (50 mg) were automatically sampled via a vibrating feed control at a feeder rate of 60% and dispersed in compressed air at a pressure of 3 bar.

[4] = Solubility of RPL554 and salts in pMDI propellant systems; format: physicochemical; settings: for Estimated RPL554 solubilised (%) / Estimated Solubilised RPL554 μg per 50 μL actuation / Solubility RPL554: in HFA 134 with Ethanol/Tween
Protocol: Quantitative assessment of the solubility of RPL554 and salt variants in the propellant systems of selected pMDI formulations (three replicates of each formulation) was performed. pMDIs were directly coupled to an adaptor fitted with a 0.20 μm filter unit connected, in series to a 21 G needle, which was inserted via a rubber septum, into a cooled multi-dose glass vial. A 19 G filter needle was inserted through the septum to aid evaporation of propellant from the vial. Prior to the filtration process the vial was cooled in a mixture of dry ice and acetone to ensure that the pressure within the vial was reduced in order to facilitate collection of the output from the pMDI. Ten consecutive actuations of the pMDI were fired through the filter and collected in the vial. Between actuations the canister was shaken for approximately 10 seconds. The pMDI unit was weighed before and after the filtering procedure. The filtrate was stored at room temperature and allowed to evaporate to dryness.
Samples were recovered by carefully rinsing the inside of the vials with 1 mL of recovery solution before transfer to HPLC vials for analysis. The estimated % of RPL554 solubilised within the canister was calculated from the starting mass of RPL554 within the canisters, which in turn was calculated using the theoretical molecular weight values of the RPL554 free base and salt variants shown in Table 13. The theoretical molecular weight estimates of the salts were provided by Verona.

[5] = Physico-chemical characteristics of salt candidates: solubility in water, pH of aqueous suspension/solution, form post water maturation
Protocol: The physico-chemical characteristics of the salt candidates were determined.

[6] = Intrinsic dissolution of compressed tablet, pH 7.0, 37° C. (Sirius inForm); format: physicochemical; settings: for mass dissolved: before precipitation; for Mass of salt (μg) dissolved after 2 hours, Average / Mass of salt (μg) dissolved after 2 hours, Test 1 / Mass of salt (μg) dissolved after 2 hours, Test 2: pH 7.0, 0.15 M NaCl, 37° C.
Protocol: The dissolution assay (pH-dependent sample dissolution) was investigated using the Sirius inForm.
Dissolution of a compressed tablet of the compound was monitored in a pH 7.0 aqueous dissolution experiment (0.15 M NaCl) at 37° C. using UV-absorption spectroscopy in 2 hour experiments. A tablet with a diameter of 3 mm, requiring approximate weights of 10 mg was compressed under a weight of 100 kg load force. Only one face of the tablet was exposed to the dissolution medium, which contained a 0.01 M acetate/phosphate buffer system to minimise perturbation of the experimental pH from dissolution of the drug.
Stirring of the solution was continuous and at a constant rate of 100 rpm. The absorption data was converted to absolute sample weights using previously determined, pH-dependent, molar extinction coefficients. An appropriate wavelength range was chosen to ensure that spectroscopic data with an absorption value of <1.3 was analysed, avoiding erroneous dissolution results due to saturation of the UV light source.

[7] = Solubility of RPL554 salts in saline solutions, water and aqueous buffer solutions at 25° C. (HPLC); format: physicochemical; settings: 24 hours; for Solubility as RPL554 (mg/ml) in Water: deionised water
Protocol: The behaviour of salts of RPL554 were examined under the following conditions: • Phosphate buffered to pH 3.5 in saline, 0.9% w/w at 25° C. • Acetate buffered to pH 4.5 in saline, 0.9% w/w at 25° C. • Citro-Phosphate buffered to pH 4.5 in saline, 0.9% w/w at 25° C. • Phosphate buffered to pH 6.5 in saline, 0.9% w/w at 25° C. • Saline, 0.7, 0.9 and 1.1% w/w at 25° C. • Deionised water at 25° C.
RPL554 salts and RPL554, ca 50 mg, were suspended in the various aqueous media, 1 ml, with agitation at the specified temperatures for 24 hours. The solids were isolated and dried in vacuo at 45° C. The retained filtrates were examined by HPLC.
Additional RPL554 methane sulfonate salt, ca 50 mg, was charged to the water mixtures at 25° C. and 37.5° C. in order to afford a suspension. In all other cases, suspensions were obtained.
The solubility of the RPL554 was determined by HPLC using a single point calibration and is expressed as RPL554 and not as the salt and are detailed in Table 6 and Table 7 for the various conditions utilised.

[8] = listed as methanesulfonate salt
[9] = listed as hydrobromide salt, hydrobromide

SMILES: COc1cc2c(cc1OC)-c1c/c(=N\c3c(C)cc(C)cc3C)n(CCNC(N)=O)c(=O)n1CC2 [Methanesulfonate, RPL554 methanesulfonate]
- †Measured Mass of 1% w/w Blend Delivered per capsule [1]: 19.96 mg
- ††RPL554 Emitted (μg) per capsule (B) [1]: 118.69 µg
- Calculated RPL554 Content (μg) per capsule (A) [1]: 164.72 µg
- Measured Blend Content (% Theoretical) [2]: 99.13 % Theoretical
- **Adjusted RPL554 Content per capsule [2]: 165.05 µg
- D (0.1) (μm) [3]: 0.45 μm
- D (0.5) (μm) [3]: 1.20 μm
- D (0.9) (μm) [3]: 3.46 μm
- Calculated RPL554 solubilised (%) ([4]; in HFA 134): BLQ
- Calculated Solubilised RPL554 μg per 50 μL actuation ([4]; in HFA 134): BLQ
- Solubility RPL554 (μg/g) ([4]; in HFA 134, BLQ = below limit of quantitation (0.06 μg/mL)): BLQ
- Estimated RPL554 solubilised (%) [4]: 11.64%
- Estimated Solubilised RPL554 μg per 50 μL actuation [4]: 19.38 µg
- Solubility RPL554 [4]: 298.07 µg/g
- Solubility RPL554 ([4]; listed as methanesulfonate): 298 µg/g
- Calculated RPL554 solubilised (%) ([4]; in HFA 227): BLQ
- Calculated Solubilised RPL554 μg per 50 μL actuation ([4]; in HFA 227): BLQ
- Solubility RPL554 (μg/g) ([4]; in HFA 227): BLQ
- pH of aqueous suspension/solution ([5]; listed as Methane sulfonic): 2.69
- dissolution compared with free base / other salts ([6]; 2 hour experiments): higher dissolution than the rest of the salts
- mass dissolved ([6]; at 8.5 min): 3960 µg
- mass dissolved ([6]; at 11 min): 5200 µg
- maximum pH change (decrease) during dissolution ([6]; nominal start pH 7): about 0.1 pH units
- Mass of salt (μg) dissolved after 2 hours, Average [6, 8]: 225 µg
- Mass of salt (μg) dissolved after 2 hours, Test 1 [6, 8]: 160 µg
- Mass of salt (μg) dissolved after 2 hours, Test 2 [6, 8]: 290 µg
- Solubility as RPL554 (mg/ml) in 0.7 w/w % Saline [7]: 5.01 mg/mL
- Solubility as RPL554 (mg/ml) in 0.9 w/w % Saline [7]: 3.73 mg/mL
- Solubility as RPL554 (mg/ml) in 1.1 w/w % Saline [7]: 2.52 mg/mL
- Solubility as RPL554 (mg/ml) in Water [7]: 44.52 mg/mL

SMILES: COc1cc2c(cc1OC)-c1c/c(=N\c3c(C)cc(C)cc3C)n(CCNC(N)=O)c(=O)n1CC2 [Hydrobromide, RPL554 hydrobromide]
- †Measured Mass of 1% w/w Blend Delivered per capsule ([1]; hydrobromide): 19.96 mg
- ††RPL554 Emitted (μg) per capsule (B) ([1]; hydrobromide): 104.28 µg
- Calculated RPL554 Content (μg) per capsule (A) ([1]; hydrobromide): 142.29 µg
- Measured Blend Content (% Theoretical) ([2]; hydrobromide): 83.37 % Theoretical
- **Adjusted RPL554 Content per capsule ([2]; hydrobromide): 142.58 µg
- D (0.1) (μm) ([3]; hydrobromide): 0.64 μm
- D (0.5) (μm) ([3]; hydrobromide): 1.52 μm
- D (0.9) (μm) ([3]; hydrobromide): 3.23 μm
- Solubility RPL554 (μg/g) ([4]; in HFA 134, BLQ = below limit of quantitation (0.06 μg/mL), hydrobromide): BLQ
- Calculated RPL554 solubilised (%) ([4]; in HFA 134, hydrobromide): BLQ
- Calculated Solubilised RPL554 μg per 50 μL actuation ([4]; in HFA 134, hydrobromide): BLQ
- Estimated RPL554 solubilised (%) ([4]; hydrobromide): 3.74%
- Estimated Solubilised RPL554 μg per 50 μL actuation ([4]; hydrobromide): 6.40 µg
- Solubility RPL554 ([4]; hydrobromide): 96.27 µg/g
- pH of aqueous suspension/solution ([5]; listed as HBr, hydrobromide): 3.20
- Mass of salt (μg) dissolved after 2 hours, Average [6, 9]: 35.3 µg
- Mass of salt (μg) dissolved after 2 hours, Test 1 [6, 9]: 30.4 µg
- Mass of salt (μg) dissolved after 2 hours, Test 2 [6, 9]: 40.1 µg
- Solubility as RPL554 (mg/ml) in 0.7 w/w % Saline ([7]; hydrobromide): 0.95 mg/mL
- Solubility as RPL554 (mg/ml) in 0.9 w/w % Saline ([7]; hydrobromide): 0.82 mg/mL
- Solubility as RPL554 (mg/ml) in 1.1 w/w % Saline ([7]; hydrobromide): 0.66 mg/mL
- Solubility as RPL554 (mg/ml) in Water ([7]; hydrobromide): 3.43 mg/mL
